Source: patent US10435398B2, “Oxazole orexin receptor antagonists” (MERCK SHARP & DOHME CORP., priority 2014, dated 2019)

What was measured:
human orexin-2 receptor = human orexin-2 receptor (Homo sapiens (Human), UniProt O43614); experiment: FLIPR Ca2+ Flux Assay, hOX2R; format: cell-based; details: CHO cells expressing human orexin-2 receptor; agonist 70 pM Ala-6,12 human orexin-A
Procedure: (§1) The utility of the compounds in accordance with the present invention as orexin receptor OX1R and/or OX2R antagonists may be readily determined without undue experimentation by methodology well known in the art, including the “FLIPR Ca^2+ Flux Assay” (Okumura et al., Biochem. Biophys. Res. Comm. 280:976-981, 2001). In a typical experiment the OX1 and OX2 receptor antagonistic activity of the compounds of the present invention was determined in accordance with the following experimental method. For intracellular calcium measurements, Chinese hamster ovary (CHO) cells expressing the rat or human orexin-1 receptor or the human orexin-2 receptor, are grown in Iscove's modified DMEM containing 2 mM L-glutamine, […], 1% hypoxanthine-thymidine supplement, 100 U/ml penicillin, 100 μg/ml streptomycin and 10% heat-inactivated fetal calf serum (FCS). The cells are seeded at 20,000 cells/well into Becton-Dickinson black 384-well clear bottom sterile plates coated with poly-D-lysine. All reagents were from GIBCO-Invitrogen Corp. The seeded plates are incubated overnight at 37° C. and 5% CO2. Ala-6,12 human orexin-A as the agonist is prepared as a 1 mM stock solution in 1% bovine serum albumin (BSA) and diluted in assay buffer (HBSS containing 20 mM HEPES, 0.1% BSA and 2.5 mM probenecid, pH7.4) for use in the assay at a final concentration of 70 pM. Test compounds are prepared as 10 mM stock solution in DMSO, then diluted in 384-well plates, first in DMSO, then assay buffer. On the day of the assay, cells are washed 3 times with 100 μl assay buffer and then incubated for 60 min (37° C., 5% CO2) in 60 μl assay buffer containing 1 μM Fluo-4AM ester, 0.02% pluronic acid, and 1% BSA. The dye loading solution is then aspirated and cells are washed 3 times with 100 μl assay buffer. 30 μl of that same buffer is left in each well. Within the Fluorescent Imaging Plate Reader (FLIPR, Molecular Devices), test compounds are added to the plate in a volume of 25 μl, incubated for 5 min and finally 25 μl of agonist is added. Fluorescence is measured for each well at 1 second intervals for 5 minutes and the height of each fluorescence peak is compared to the height of the fluorescence peak induced by 70 pM Ala-6,12 orexin-A with buffer in place of antagonist. For each antagonist, IC50 value (the concentration of compound needed to inhibit 50% of the agonist response) is determined. Alternatively, compound potency can be assessed by a radioligand binding assay (described in Bergman et. al. Bioorg. Med. Chem. Lett. 2008, 18, 1425-1430) in which the inhibition constant (Ki) is determined in membranes prepared from CHO cells expressing either the OX1 or OX2 receptor. The intrinsic orexin receptor antagonist activity of a compound which may be used in the present invention may be determined by these assays.

human orexin-1 receptor = human orexin-1 receptor (Homo sapiens (Human), UniProt O43613); experiment: FLIPR Ca2+ Flux Assay, hOX1R; format: cell-based; details: CHO cells expressing human orexin-1 receptor; agonist 70 pM Ala-6,12 human orexin-A
human orexin-1 receptor, sequence (O43613 whole entry): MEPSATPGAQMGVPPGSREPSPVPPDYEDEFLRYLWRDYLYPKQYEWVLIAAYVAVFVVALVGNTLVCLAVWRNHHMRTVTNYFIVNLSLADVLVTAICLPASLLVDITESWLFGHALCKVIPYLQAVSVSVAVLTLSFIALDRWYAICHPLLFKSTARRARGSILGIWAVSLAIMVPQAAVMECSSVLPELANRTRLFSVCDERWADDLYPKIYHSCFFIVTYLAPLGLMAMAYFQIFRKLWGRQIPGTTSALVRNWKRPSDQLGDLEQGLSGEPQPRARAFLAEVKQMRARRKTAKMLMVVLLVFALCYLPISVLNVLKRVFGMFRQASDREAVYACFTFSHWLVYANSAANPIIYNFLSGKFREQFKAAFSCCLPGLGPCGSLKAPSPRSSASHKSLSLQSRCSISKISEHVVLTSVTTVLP
Procedure: as §1

human orexin-2 receptor, sequence (O43614 whole entry): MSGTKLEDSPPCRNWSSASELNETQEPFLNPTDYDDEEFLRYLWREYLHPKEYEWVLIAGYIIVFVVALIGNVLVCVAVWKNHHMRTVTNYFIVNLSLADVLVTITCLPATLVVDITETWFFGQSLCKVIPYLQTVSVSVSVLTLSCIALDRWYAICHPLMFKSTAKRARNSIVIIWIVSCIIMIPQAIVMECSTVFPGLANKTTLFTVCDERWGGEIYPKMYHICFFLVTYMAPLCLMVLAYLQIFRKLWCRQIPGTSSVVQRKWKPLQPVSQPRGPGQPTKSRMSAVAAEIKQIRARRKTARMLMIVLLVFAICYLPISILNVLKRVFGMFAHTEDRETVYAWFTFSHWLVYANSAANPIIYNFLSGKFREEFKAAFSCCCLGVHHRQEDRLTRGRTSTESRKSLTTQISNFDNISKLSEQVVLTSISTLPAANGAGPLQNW

SMILES	IC50 (human orexin-2 receptor) [µM]	IC50 (human orexin-1 receptor) [µM]
CCN(CCc1nc(C(C)(C)O)c(C)o1)C(=O)c1ccccc1-c1nc(C)no1 [Example 10c, N-ethyl-N-{2-[4-(1-hydroxy-1-methylethyl)-5-methyl-1,3-oxazol-2-yl]ethyl}-2-(3-methyl-1,2,4-oxadiazol-5-yl)benzamide]	0.212	> 10
CCN(CCc1nc(C(C)(C)O)c(C)o1)C(=O)c1cc(F)ccc1-n1nccn1 [Example 7, N-Ethyl-5-fluoro-N-{2-[4-(1-hydroxy-1-methylethyl)-5-methyl-1,3-oxazol-2-yl]ethyl}-2-(2H-1,2,3-triazol-2-yl)benzamide]	0.062	> 10
CCN(CCc1nc(C(C)(C)O)c(C)o1)C(=O)c1ccccc1CC(F)(F)F [Example 14, N-Ethyl-N-{2-[4-(1-hydroxy-1-methylethyl)-5-methyl-1,3-oxazol-2-yl]ethyl}-2-(2,2,2-trifluoroethyl)benzamide]	0.211	> 10
CCN(CCc1nc(C(C)(C)O)c(C)o1)C(=O)c1ccccc1-n1nccn1 [Example 11, N-Ethyl-N-{2-[4-(1-hydroxy-1-methylethyl)-5-methyl-1,3-oxazol-2-yl]ethyl}-2-(2H-1,2,3-triazol-2-yl)benzamide]	0.027	2.59
CCN(CCc1nc(C(C)(C)O)c(C)o1)C(=O)c1ccsc1-n1nccn1 [Example 12, N-Ethyl-N-{2-[4-(1-hydroxy-1-methylethyl)-5-methyl-1,3-oxazol-2-yl]ethyl}-2-(2H-1,2,3-triazol-2-yl)thiophene-3-carboxamide]	0.063	> 10
CCN(CCc1nc(C(C)(C)O)c(C)o1)C(=O)c1ccccc1-n1ncnn1 [Example 9, N-ethyl-N-{2-[4-(1-hydroxy-1-methylethyl)-5-methyl-1,3-oxazol-2-yl]ethyl}-2-(2H-tetrazol-2-yl)benzamide]	0.491	> 10
CCN(CCc1nc(C(C)(C)O)c(C)o1)C(=O)c1ccccc1C1(C(F)F)CC1 [Example 18b, 2-(1-(difluoro-methyl)cyclopropyl)-N-ethyl-N-(2-(4-(2-hydroxypropan-2-yl)-5-methyloxazol-2-yl)ethyl)benzamide]	0.145	> 10
CCN(CCc1nc(C(C)(C)O)c(C)o1)C(=O)c1ccccc1-c1ccccc1 [Example 1, N-Ethyl-N-(2-(4-(2-hydroxypropan-2-yl)-5-methyloxazol-2-yl)ethyl)-[1,1′-biphenyl]-2-carboxamide]	0.029	1.83
CCN(CCc1nc(C(C)(C)O)c(C)o1)C(=O)c1sccc1-n1nccn1 [Example 10d, N-ethyl-N-{2-[4-(1-hydroxy-1-methylethyl)-5-methyl-1,3-oxazol-2-yl]ethyl}-3-(2H-1,2,3-triazol-2-yl)thiophene-2-carboxamide]	0.435	> 10
Cc1oc(CCN(CCO)C(=O)c2ccccc2-n2nccn2)nc1C(C)(C)O [Example 28, N-(2-hydroxyethyl)-N-(2-(4-(2-hydroxypropan-2-yl)-5-methyloxazol-2-yl)ethyl)-2-(2H-1,2,3-triazol-2-yl)benzamide]	0.098	> 10
Cc1oc(CCN(CCCO)C(=O)c2ccccc2-n2nccn2)nc1C(C)(C)O [Example 27, N-{2-[4-(1-Hydroxy-1-methylethyl)-5-methyl-1,3-oxazol-2-yl]ethyl}-N-(3-hydroxypropyl)-2-(2H-1,2,3-triazol-2-yl)benzamide]	0.304	> 10
COCCCN(CCc1nc(C(C)(C)O)c(C)o1)C(=O)c1ccccc1-n1nccn1 [Example 33, N-(2-(4-(2-Hydroxypropan-2-yl)-5-methyloxazol-2-yl)ethyl)-N-(3-methoxypropyl)-2-(2H-1,2,3-triazol-2-yl)benzamide]	0.119	> 10
CCN(CCc1nc(C(C)(O)C(C)C)c(C)o1)C(=O)c1ccccc1-n1nccn1 (stereo not shown) [Example 20, N-Ethyl-N-{2-[4-(1-hydroxy-1,2-dimethylpropyl)-5-methyl-1,3-oxazol-2-yl]ethyl}-2-(2H-1,2,3-triazol-2-yl)benzamide]	0.019	2.67
CCN(CCc1nc(C(C)(C)O)c(C)o1)C(=O)c1cccnc1OCC(F)F [Example 10, 2-(2,2-difluoroethoxy)-N-ethyl-N-{2-[4-(1-hydroxy-1-methylethyl)-5-methyl-1,3-oxazol-2-yl]ethyl}pyridine-3-carboxamide]	0.224	> 10
C=CCN(CCc1nc(C(C)(C)O)c(C)o1)C(=O)c1ccccc1-n1nccn1 [Example 21, N-{2-[4-(1-Hydroxy-1-methylethyl)-5-methyl-1,3-oxazol-2-yl]ethyl}-N-prop-2-en-1-yl-2-(2H-1,2,3-triazol-2-yl)benzamide]	0.019	1.01
Cc1oc(CCN(C(=O)c2ccccc2-n2nccn2)C(C)C)nc1C(C)(C)O [Example 25, N-{2-[4-(1-Hydroxy-1-methylethyl)-5-methyl-1,3-oxazol-2-yl]ethyl}-N-(1-methylethyl)-2-(2H-1,2,3-triazol-2-yl)benzamide]	0.152	> 10
CCN(CCc1nc(C(C)(O)CC)c(C)o1)C(=O)c1ccccc1-n1nccn1 (stereo not shown) [Example 19, N-Ethyl-N-{2-[4-(1-hydroxy-1-methylpropyl)-5-methyl-1,3-oxazol-2-yl]ethyl}-2-(2H-1,2,3-triazol-2-yl)benzamide]	0.012	3.38
CCOc1ccccc1C(=O)N(CC)CCc1nc(C(C)(C)O)c(C)o1 [Example 15, 2-Ethoxy-N-ethyl-N-{2-[4-(1-hydroxy-1-methylethyl)-5-methyl-1,3-oxazol-2-yl]ethyl}benzamide]	0.223	> 10
COCCN(CCc1nc(C(C)(C)O)c(C)o1)C(=O)c1ccccc1-n1nccn1 [Example 29, N-(2-(4-(2-Hydroxypropan-2-yl)-5-methyloxazol-2-yl)ethyl)-N-(2-methoxyethyl)-2-(2H-1,2,3-triazol-2-yl)benzamide]	0.019	> 10
Cc1oc(CCN(C(=O)c2ccccc2-n2nccn2)C2CC2)nc1C(C)(C)O [Example 31, N-Cyclopropyl-N-(2-(4-(2-hydroxypropan-2-yl)-5-methyloxazol-2-yl)ethyl)-2-(2H-1,2,3-triazol-2-yl)benzamide]	0.042	7.59
CCN(CCc1nc(C(C)(C)O)c(C)o1)C(=O)c1ccccc1-n1cccn1 [Example 17, N-Ethyl-N-{2-[4-(1-hydroxy-1-methylethyl)-5-methyl-1,3-oxazol-2-yl]ethyl}-2-(1H-pyrazol-1-yl)benzamide]	0.292	> 10
CCN(CCc1nc(C(C)(C)O)c(C)o1)C(=O)c1cccc(C)c1-n1nccn1 [Example 2, N-Ethyl-N-{2-[4-(1-hydroxy-1-methylethyl)-5-methyl-1,3-oxazol-2-yl]ethyl}-3-methyl-2-(2H-1,2,3-triazol-2-yl)benzamide]	0.054	> 10
CCN(CCc1nc(C(C)(C)O)c(C)o1)C(=O)c1cccnc1-n1cccn1 [Example 6, N-Ethyl-N-{2-[4-(1-hydroxy-1-methylethyl)-5-methyl-1,3-oxazol-2-yl]ethyl}-2-(1H-pyrazol-1-yl)pyridine-3-carboxamide]	0.101	> 10
Cc1oc(CCN(CC(F)F)C(=O)c2ccccc2-n2nccn2)nc1C(C)(C)O [Example 24, N-(2,2-Difluoroethyl)-N-{2-[4-(1-hydroxy-1-methylethyl)-5-methyl-1,3-oxazol-2-yl]ethyl}-2-(2H-1,2,3-triazol-2-yl)benzamide]	0.068	> 10
Cc1oc(CCN(C)C(=O)c2ccccc2-n2nccn2)nc1C(C)(C)O [Example 30, N-(2-(4-(2-Hydroxypropan-2-yl)-5-methyloxazol-2-yl)ethyl)-N-methyl-2-(2H-1,2,3-triazol-2-yl)benzamide]	0.39	> 10
Cc1oc(CCN(CC2CC2)C(=O)c2ccccc2-n2nccn2)nc1C(C)(C)O [Example 23, N-(Cyclopropylmethyl)-N-{2-[4-(1-hydroxy-1-methylethyl)-5-methyl-1,3-oxazol-2-yl]ethyl}-2-(2H-1,2,3-triazol-2-yl)benzamide]	0.021	2.84
